33 compounds from patent US6921770B2 (priority 2000, dated 2005) can be followed below.

In one test the test system is rice blast fungi. In kind it is in vivo, Pyricularia grisea.
Conditions: not given
On to `Cc1ccc(NC(=O)Cc2csc(=Nc3cc(OC(C)C)c(Cl)cc3F)n2C)cc1.Cl` [Compound 168, 2-(4-chloro-5-isopropoxy-2-fluorophenylimino)-3-methyl-4-[N-(4-methylphenyl)carbamoylmethyl-]-1,3-thiazol-4-ine hydrochloride], for which the “Inhibiting Ratio (%) (at 250 ppm)” value stood at 92%.

As for “2-(3-chloro-4-fluorophenylimino)-3-methyl-4-[N-(methoxyphenyl)carbamoylmethyl]-1,3-thiazol-4-ine [Compound 336]”, the “Inhibiting Ratio (%) (at 250 ppm)” value was 96%. Turning to `CC(C)Oc1ccc(N=c2scc(CC(=O)Nc3ccccc3F)n2C)cc1.Cl` [Compound 105, 2-(4-isopropoxyphenylimino)-3-methyl-4-[N-(2-fluorophenyl)carbamoylmethyl]-1,3-thiazol-4-ine hydrochloride], the “Inhibiting Ratio (%) (at 250 ppm)” value worked out at 90%.

`Br.Cc1ccc(NC(=O)Cc2csc(=Nc3cccc(F)c3)n2C)cc1` [Compound 48, 2-(3-fluorophenylimino)-3-methyl-4-[N-(4-methylphenyl)carbamoylmethyl]-1,3-thiazol-4-ine hydrobromide]: the “Inhibiting Ratio (%) (at 250 ppm)” value worked out at 100%. Same read-out and setting: to `Br.Cc1ccc(NC(=O)Cc2csc(=Nc3ccc(F)c(Cl)c3)n2C)cc1` [Compound 51, 2-(3-chloro-4-fluorophenylimino)-3-methyl-4-[N-(4-methylphenyl)carbamoylmethyl]-1,3-thiazol-4-ine hydrobromide] belongs 99%; to `Br.Cn1c(CC(=O)Nc2cccc(Cl)c2)csc1=Nc1ccc(C(F)(F)F)cc1` [Compound 20, 2-(4-trifluoromethylphenylimino)-3-methyl-4-[N-(3-chlorophenyl)carbamoylmethyl]-1,3-thiazol-4-ine hydrobromide], 91%. With `Br.Cc1cc(Br)ccc1N=c1scc(CC(=O)Nc2ccccc2)n1C` [Compound 26, 2-(4-bromo-2-methylphenylimino)-3-methyl-4-(N-phenylcarbamoylmethyl)-1,3-thiazol-4-ine hydrobromide], the “Inhibiting Ratio (%) (at 250 ppm)” value was found to be 100%.

Consider `Cc1ccc(NC(=O)Cc2csc(=Nc3ccccc3F)n2C)cc1Cl.Cl` [Compound 235, 2-(2-fluorophenylimino)-3-methyl-4-[N-(3-chloro-4-methylphenyl)carbamoylmethyl]-4-thiazoline hydrochloride], for which the “Inhibiting Ratio (%) (at 250 ppm)” value came to 92%. The same measure, in the same setting: to `COc1ccc(N=c2scc(CC(=O)Nc3ccccc3F)n2C)cc1.Cl` [Compound 78, 2-(4-methoxyphenylimino)-3-methyl-4-[N-(2-fluorophenyl)carbamoylmethyl]-1,3-thiazol-4-ine hydrochloride] belongs 91%; to `Br.CC(C)Oc1ccc(N=c2scc(CC(=O)Nc3ccc(Cl)cc3)n2C)cc1` [Compound 314, 2-(4-isopropoxyphenylimino)-3-methyl-4-[N-(4-chlorophenyl)carbamoylmethyl]-1,3-thiazol-4-ine hydrobromide], 100%; to `Br.Cc1ccc(NC(=O)Cc2csc(=Nc3cc(C(F)(F)F)cc(C(F)(F)F)c3)n2C)cc1` [Compound 54, 2-(3,5-ditrifluoromethylphenylimino)-3-methyl-4-[N-(4-methylphenyl)carbamoylmethyl]-1,3-thiazol-4-ine hydrobromide], 96%. Same read-out and setting: with `Cl.Cn1c(CC(=O)Nc2ccc(Cl)cc2)csc1=Nc1ccccc1-c1ccccc1` [Compound 131, 2-(2-phenylphenylimino)-3-methyl-4-[N-(4-chlorophenyl)carbamoylmethyl]-1,3-thiazol-4-ine hydrochloride] the figure was 96%.

`Cl.Cn1c(CC(=O)Nc2ccc(Br)cc2)csc1=Nc1ccc(F)cc1Cl` [Compound 140, 2-(2-chloro-4-fluorophenylimino)-3-methyl-4-[N-(4-bromophenyl)carbamoylmethyl]-1,3-thiazol-4-ine hydrochloride]: the “Inhibiting Ratio (%) (at 250 ppm)” value was found to be 99%. Take “2-(2,4-dichloromethylphenylimino)-3-methyl-4-[N-(3-chlorophenyl)carbamoylmethyl]-1,3-thiazol-4-ine hydrobromide [Compound 60]”: the “Inhibiting Ratio (%) (at 250 ppm)” value came out at 100%. Regarding `Cl.Cn1c(CC(=O)Nc2ccc(Br)cc2)csc1=Nc1ccc(Oc2ccccc2)cc1` [Compound 141, 2-(4-phenoxyphenylimino)-3-methyl-4-[N-(4-bromophenyl)carbamoylmethyl]-1,3-thiazol-4-ine hydrochloride], the “Inhibiting Ratio (%) (at 250 ppm)” value came to 99%. Still for that read-out and setting: with `Br.Cc1ccc(N=c2scc(CC(=O)Nc3cccc(Cl)c3)n2C)c(F)c1` [Compound 67, 2-(2-fluoro-4-methylphenylimino)-3-methyl-4-[N-(3-chlorophenyl)carbamoylmethyl]-1,3-thiazol-4-ine hydrobromide] the figure was 100%; with `Br.Cc1ccc(NC(=O)Cc2csc(=Nc3cc(Cl)ccc3C)n2C)cc1` [Compound 34, 2-(5-chloro-2-methylphenylimino)-3-methyl-4-[N-(4-methylphenyl)carbamoylmethyl]-1,3-thiazol-4-ine hydrobromide], 100%.

For `Cl.Cn1c(CC(=O)Nc2ccc(Br)cc2)csc1=Nc1cccc(Cl)c1F` [Compound 134, 2-(3-chloro-2-fluorophenylimino)-3-methyl-4-[N-(4-bromophenyl)carbamoylmethyl]-1,3-thiazol-4-ine hydrochloride], the “Inhibiting Ratio (%) (at 250 ppm)” value turned out to be 98%.

Consider `Br.Cc1ccccc1N=c1scc(CC(=O)Nc2ccc(Cl)cc2)n1C` [Compound 310, 2-(2-methylphenylimino)-3-methyl-4-[N-(4-chlorophenyl)carbamoylmethyl]1,3-thiazol-4-ine hydrobromide], for which the “Inhibiting Ratio (%) (at 250 ppm)” value is recorded as 100%.

Consider `Br.COc1ccccc1N=c1scc(CC(=O)Nc2cccc(C(F)(F)F)c2)n1C` [Compound 65, 2-(2-methoxyphenylimino)-3-methyl-4-[N-(3-trifluoromethylphenyl)carbamoylmethyl]-1,3-thiazol-4-ine hydrobromide], for which the “Inhibiting Ratio (%) (at 250 ppm)” value is 98%. Same read-out and setting: to `Br.COc1ccccc1N=c1scc(CC(=O)Nc2ccc(C)cc2)n1C` [Compound 28, 2-(2-methoxyphenylimino)-3-methyl-4-[N-(4-methylphenyl)carbamoylmethyl]-1,3-thiazol-4-ine hydrobromide] belongs 100%; to `Cc1ccc(NC(=O)Cc2csc(=Nc3ccc(F)c(Cl)c3)n2C)cc1Cl.Cl` [Compound 238, 2-(3-chloro-4-fluorophenylimino)-3-methyl-4-[N-(3-chloro-4-methylphenyl)carbamoylmethyl]-1,3-thiazol-4-ine hydrochloride], 93%. For `Br.Cn1c(CC(=O)Nc2ccc(Cl)cc2)csc1=Nc1ccccc1` [Compound 305, 2-phenylimino-3-methyl-4-[N-(4-chlorophenyl)carbamoylmethyl]-1,3-thiazol-4-ine hydrobromide], the “Inhibiting Ratio (%) (at 250 ppm)” value was found to be 100%. In the case of `CC(C)Oc1cc(N=c2scc(CC(=O)Nc3ccccc3F)n2C)c(F)cc1Cl.Cl` [Compound 151, 2-(4-chloro-2-fluoro-5-isopropoxyphenylimino)-3-methyl-4-[N-(2-fluorophenyl)carbamoylmethyl]-1,3-thiazol-4-ine hydrochloride], the “Inhibiting Ratio (%) (at 250 ppm)” value came out at 96%. On to `Cc1ccc(NC(=O)Cc2csc(=Nc3ccc(Cl)cc3)n2C)cc1Cl.Cl` [Compound 233, 2-(4-chlorophenylimino)-3-methyl-4-[N-(3-chloro-4-methylphenyl)carbamoylmethyl]-4-thiazoline hydrochloride], for which the “Inhibiting Ratio (%) (at 250 ppm)” value is 97%. For `Cn1c(CC(=O)Nc2ccc(Cl)cc2)csc1=Nc1ccc(C#N)cc1` [Compound 329, 2-(4-cyanophenylimino)-3-methyl-4-[N-(4-chlorophenyl)carbamoylmethyl]-1,3-thiazol-4-ine], the “Inhibiting Ratio (%) (at 250 ppm)” value is given as 100%. For the compound `Cc1ccc(N=c2scc(CC(=O)Nc3ccc(Br)cc3)n2C2CC2)c(C)c1.Cl` [Compound 263, 2-(2,4-dimethylphenylimino)-3-cyclopropyl-4-[N-(4-bromophenyl)carbamoylmethyl]-1,3-thiazol-4-ine hydrochloride], the “Inhibiting Ratio (%) (at 250 ppm)” value worked out at 96%. For the compound `Cl.Cn1c(CC(=O)Nc2ccc(Br)cc2)csc1=Nc1ccc(Br)cc1` [Compound 143, 2-(4-bromophenylimino)-3-methyl-4-[N-(4-bromophenyl)carbamoylmethyl]-1,3-thiazol-4-ine hydrochloride], the “Inhibiting Ratio (%) (at 250 ppm)” value is reported as 95%.

On to `Br.COc1ccc(N=c2scc(CC(=O)Nc3ccc(Cl)cc3)n2C)cc1` [Compound 308, 2-(4-methoxyphenylimino)-3-methyl-4-[N-(4-chlorophenyl)carbamoylmethyl]-1,3-thiazol-4-ine hydrobromide], for which the “Inhibiting Ratio (%) (at 250 ppm)” value came out at 99%. The same measure, in the same setting: to `Br.Cn1c(CC(=O)Nc2ccccc2)csc1=Nc1ccc(Oc2ccccc2)cc1` [Compound 3, 2-(4-phenoxyphenylimino)-3-methyl-4-(N-phenylcarbamoylmethyl)-1,3-thiazol-4-ine hydrobromide] belongs 95%; to `Cl.Cn1c(CC(=O)Nc2ccc([N+](=O)[O-])cc2)csc1=Nc1ccc(OC(F)(F)F)cc1` [Compound 176, 2-(4-trifluoromethoxyphenylimino)-3-methyl-4-[N-(4-nitrophenyl)carbamoylmethyl]-4-thiazoline hydrochloride], 96%. In the case of `Cl.Cn1c(CC(=O)Nc2ccc(OC(F)(F)F)cc2)csc1=Nc1ccc(F)cc1F` [Compound 192, 2-(2,4-difluorophenylimino)-3-methyl-4-[N-(4-trifluoromethoxyphenyl)carbamoylmethyl]-1,3-thiazol-4-ine hydrochloride], the “Inhibiting Ratio (%) (at 250 ppm)” value turned out to be 92%.

The same test, now with this note: hydrobromide.
In the case of `Br.Cc1cc(Cl)ccc1N=c1scc(CC(=O)Nc2cccc(Cl)c2)n1C` [Compound 63, 2-(4-chloro-2-methylphenylimino)-3-methyl-4-[N-(3-chlorophenyl)carbamoylmethyl]-1,3-thiazol-4-ine hydrobromide], the “Inhibiting Ratio (%) (at 250 ppm)” value worked out at 96%.
